Results as given in US6914045B2, “Glycopeptide antibiotics” (Wyeth Holdings Corporation, priority 2001, dated 2005).
Converted amounts (≈) assume the structure as drawn.

Columns and labels:
Assay in all cases: in vitro antibacterial evaluation, MIC by broth dilution
Type in all cases: cell-based
Staphylococcus sp. = settings: broth dilution, 18 hours at 35° C.; for MIC Staphylococcus aureus (GC 1131): strain GC 1131
Method in brief: (§1)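 MIC, the lowest antibiotic concentration preventing growth, was read across 64-0.06 μg/mL with 5×10^5 CFU/mL inoculum. Method followed NCCLS M7-A2 broth dilution using Mueller-Hinton II; Gram-positive strains covered recent methicillin-, penicillin- and/or vancomycin-resistant clinical isolates.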

Escherichia coli = system: Escherichia coli
Method in brief: as §1

Streptococcus sp. = settings: broth dilution, 18 hours at 35° C.
Method in brief: as §1

Enterococcus sp. = settings: broth dilution, 18 hours at 35° C.
Method in brief: as §1

MIC Staphylococcus aureus (GC 1131) (Staphylococcus sp.; inoculum 5×10^5 CFU/mL): 4 µg/mL (≈ 2.77 µM) | MIC Staphylococcus aureus (ATCC 29213) (Staphylococcus sp.; strain ATCC 29213): 2 µg/mL (≈ 1.39 µM) | MIC Staphylococcus aureus (GC 1131) (Staphylococcus sp.): 4 µg/mL (≈ 2.77 µM) | MIC Staphylococcus aureus (GC 3051) (Staphylococcus sp.; strain GC 3051): 2 µg/mL (≈ 1.39 µM) | MIC Staphylococcus aureus (GC 3053) (Staphylococcus sp.; strain GC 3053): 8 µg/mL (≈ 5.54 µM) | MIC Staphylococcus aureus (GC 4541) (Staphylococcus sp.; strain GC 4541): 2 µg/mL (≈ 1.39 µM) | MIC Staphylococcus aureus (GC 4542) (Staphylococcus sp.; strain GC 4542): 2 µg/mL (≈ 1.39 µM) | MIC Staphylococcus aureus-SMITH (GC 4543) (Staphylococcus sp.; strain GC 4543): 2 µg/mL (≈ 1.39 µM) | MIC Staphylococcus aureus (GC 4544) (Staphylococcus sp.; strain GC 4544): 2 µg/mL (≈ 1.39 µM) | MIC Staphylococcus aureus (GC 4545) (Staphylococcus sp.; strain GC 4545): 2 µg/mL (≈ 1.39 µM) | MIC Coagulase Negative Staphylococcus (GC 4547) (Staphylococcus sp.; strain GC 4547): 2 µg/mL (≈ 1.39 µM) | MIC Coagulase Negative Staphylococcus (GC 4548) (Staphylococcus sp.; strain GC 4548): 1 µg/mL (≈ 0.693 µM) | MIC Coagulase Negative Staphylococcus (GC 4549) (Staphylococcus sp.; strain GC 4549): 1 µg/mL (≈ 0.693 µM) | MIC Coagulase Negative Staphylococcus (GC 4551) (Staphylococcus sp.; strain GC 4551): 2 µg/mL (≈ 1.39 µM) | MIC Coagulase Negative Staphylococcus (GC 6257) (Staphylococcus sp.; strain GC 6257): 1 µg/mL (≈ 0.693 µM) | MIC Staphylococcus aureus-SMITH (GC 4543) (Staphylococcus sp.; strain SMITH GC 4543): 2 µg/mL (≈ 1.39 µM) | MIC Escherichia coli (ATCC 25922) (Escherichia coli; strain ATCC 25922, 18 hours at 35° C.): >64 µg/mL | MIC Escherichia coli (GC 4559) (Escherichia coli; strain GC 4559, 18 hours at 35° C.): 32 µg/mL (≈ 22.2 µM) | MIC Escherichia coli (GC 4560) (Escherichia coli; strain GC 4560, 18 hours at 35° C.): 1 µg/mL (≈ 0.693 µM) | MIC Streptococcus agalactiae (GC 4564) (Streptococcus sp.; Streptococcus agalactiae (GC 4564)): 1 µg/mL (≈ 0.693 µM) | MIC Streptococcus pneumoniae (ATCC 6301) (Streptococcus sp.; Streptococcus pneumoniae (ATCC 6301)): 0.25 µg/mL (≈ 0.173 µM) | MIC Streptococcus pneumoniae (GC 1894) (Streptococcus sp.; Streptococcus pneumoniae (GC 1894)): 0.12 µg/mL (≈ 0.0831 µM) | MIC Streptococcus pneumoniae (GC 4565) (Streptococcus sp.; Streptococcus pneumoniae (GC 4565)): 0.25 µg/mL (≈ 0.173 µM) | MIC Streptococcus pyogenes (GC 4563) (Streptococcus sp.; Streptococcus pyogenes (GC 4563)): 0.5 µg/mL (≈ 0.346 µM) | MIC Streptococcus pneumoniae (ATCC 6301) (Streptococcus sp.; strain ATCC 6301): 0.25 µg/mL (≈ 0.173 µM) | MIC Streptococcus pneumoniae (GC 1894) (Streptococcus sp.; strain GC 1894): 0.12 µg/mL (≈ 0.0831 µM) | MIC Streptococcus pyogenes (GC 4563) (Streptococcus sp.; strain GC 4563): 0.5 µg/mL (≈ 0.346 µM) | MIC Streptococcus agalactiae (GC 4564) (Streptococcus sp.; strain GC 4564): 1 µg/mL (≈ 0.693 µM) | MIC Streptococcus pneumoniae (GC 4565) (Streptococcus sp.; strain GC 4565): 0.25 µg/mL (≈ 0.173 µM) | MIC Enterococcus avium (GC 4558) (Enterococcus sp.; Enterococcus avium (GC 4558)): 8 µg/mL (≈ 5.54 µM) | MIC Enterococcus faecalis (ATCC 29212) (Enterococcus sp.; Enterococcus faecalis (ATCC 29212)): 8 µg/mL (≈ 5.54 µM) | MIC Enterococcus faecalis (GC 2242) (Enterococcus sp.; Enterococcus faecalis (GC 2242)): 4 µg/mL (≈ 2.77 µM) | MIC Enterococcus faecalis (GC 2691) (Enterococcus sp.; Enterococcus faecalis (GC 2691)): 4 µg/mL (≈ 2.77 µM) | MIC Enterococcus faecalis (GC 3059) (Enterococcus sp.; Enterococcus faecalis (GC 3059)): 8 µg/mL (≈ 5.54 µM) | MIC Enterococcus faecalis (GC 4552) (Enterococcus sp.; Enterococcus faecalis (GC 4552)): 8 µg/mL (≈ 5.54 µM) | MIC Enterococcus faecalis (GC 4553) (Enterococcus sp.; Enterococcus faecalis (GC 4553)): 8 µg/mL (≈ 5.54 µM) | MIC Enterococcus faecalis (GC 4554) (Enterococcus sp.; Enterococcus faecalis (GC 4554)): 8 µg/mL (≈ 5.54 µM) | MIC Enterococcus faecalis (GC 6189) (Enterococcus sp.; Enterococcus faecalis (GC 6189)): 8 µg/mL (≈ 5.54 µM) | MIC Enterococcus faecium (GC 2243) (Enterococcus sp.; Enterococcus faecium (GC 2243)): 8 µg/mL (≈ 5.54 µM) | MIC Enterococcus faecium (GC 4556) (Enterococcus sp.; Enterococcus faecium (GC 4556)): 8 µg/mL (≈ 5.54 µM) | MIC Enterococcus faecium (GC 4557) (Enterococcus sp.; Enterococcus faecium (GC 4557)): 4 µg/mL (≈ 2.77 µM) | MIC Enterococcus faecalis (ATCC 29212) (Enterococcus sp.; strain ATCC 29212): 8 µg/mL (≈ 5.54 µM) | MIC Enterococcus faecalis (GC 2242) (Enterococcus sp.; strain GC 2242): 4 µg/mL (≈ 2.77 µM) | MIC Enterococcus faecium (GC 2243) (Enterococcus sp.; strain GC 2243): 8 µg/mL (≈ 5.54 µM) | MIC Enterococcus faecalis (GC 2691) (Enterococcus sp.; strain GC 2691): 4 µg/mL (≈ 2.77 µM) | MIC Enterococcus faecalis (GC 3059) (Enterococcus sp.; strain GC 3059): 8 µg/mL (≈ 5.54 µM) | MIC Enterococcus faecalis (GC 4552) (Enterococcus sp.; strain GC 4552): 8 µg/mL (≈ 5.54 µM) | MIC Enterococcus faecalis (GC 4553) (Enterococcus sp.; strain GC 4553): 8 µg/mL (≈ 5.54 µM) | MIC Enterococcus faecalis (GC 4554) (Enterococcus sp.; strain GC 4554): 8 µg/mL (≈ 5.54 µM) | MIC Enterococcus faecium (GC 4556) (Enterococcus sp.; strain GC 4556): 8 µg/mL (≈ 5.54 µM) | MIC Enterococcus faecium (GC 4557) (Enterococcus sp.; strain GC 4557): 4 µg/mL (≈ 2.77 µM) | MIC Enterococcus avium (GC 4558) (Enterococcus sp.; strain GC 4558): 8 µg/mL (≈ 5.54 µM) | MIC Enterococcus faecalis (GC 6189) (Enterococcus sp.; strain GC 6189): 8 µg/mL (≈ 5.54 µM)
SMILES: COc1cc(OC)cc(C2OCC3OC(OC4C(CO)OC(Oc5ccc(CC6NC(=O)C(C(C)c7ccccc7)NC(=O)CNC(=O)C(CO)NC(=O)C(C(O)C7CNC(=N)N7C7OC(CO)C(O)C(O)C7O)NC(=O)C(C(O)C7CNC(=N)N7)NC6=O)cc5)C(O)C4O)C(O)C(O)C3O2)c1 (stereo not drawn) [Example 150]
MIC Staphylococcus haemolyticus (GC 4546) (Staphylococcus sp.; strain GC 4546): 1 µg/mL (≈ 0.693 µM)
